According to ChEMBL document CHEMBL1201862, “PubChem BioAssay data set” (2004):
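Dose response: 5 concentrations. Exposure: 48 h. Format: 96-well plates. Endpoint: linear interpolation; highest concentration if not reached. Abbreviation: GI50, concentration required for 50% inhibition of growth.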 Active and inactive are the calls of the source. No stated cut-off is given here; in the data, active = GI50 up to about 1.1 µM and inactive = higher.

Experiments:
Assay in all cases: inhibition of tumour cell growth, NCI panel, 48 h
[1] = test system: A498
[2] = test system: UACC-62
[3] = test system: HT-29
[4] = test system: SF-268
[5] = test system: DLD-1
[6] = test system: OVCAR-4
[7] = test system: EKVX
[8] = test system: CAKI-1
[9] = test system: LOX IMVI
[10] = test system: HL-60
[11] = test system: OVCAR-8
[12] = test system: M19-MEL
[13] = test system: NCI-H460
[14] = test system: HCT-15
[15] = test system: K562
[16] = test system: DMS-273
[17] = test system: SNB-75
[18] = test system: IGROV-1
[19] = test system: SF-295
[20] = test system: SK-MEL-28
[21] = test system: KM12
[22] = test system: UACC-257
[23] = test system: DMS-114
[24] = test system: 786-0
[25] = test system: U-251
[26] = test system: ACHN
[27] = test system: TK-10
[28] = test system: M14
[29] = test system: HCT-116
[30] = test system: LXFL 529
[31] = test system: OVCAR-5
[32] = test system: HOP-62
[33] = test system: NCI-H226
[34] = test system: MOLT-4
[35] = test system: RXF 631
[36] = test system: SF-539
[37] = test system: UO-31
[38] = test system: SR
[39] = test system: Malme-3M
[40] = test system: A549
[41] = test system: HCC 2998
[42] = test system: CCRF-CEM
[43] = test system: NCI-H23
[44] = test system: SK-OV-3
[45] = test system: SK-MEL-2
[46] = test system: SK-MEL-5
[47] = test system: HOP-92
[48] = test system: SN12C
[49] = test system: RPMI-8226
[50] = test system: SW-620
[51] = test system: SNB-19
[52] = test system: OVCAR-3
[53] = test system: KM-20L2
[54] = test system: NCI-H522
[55] = test system: HOP-18
[56] = test system: COLO 205
[57] = test system: MDA-MB-435
[58] = test system: RXF 393
[59] = test system: MCF7
[60] = test system: SNB-78
[61] = test system: MDA-N
[62] = test system: MDA-MB-231
[63] = test system: XF498
[64] = test system: PC-3
[65] = test system: DU-145
[66] = test system: T47D
[67] = test system: BT-549
[68] = test system: NCI/ADR-RES
[69] = test system: Hs-578T

**Q.** What does the source list for COc1cc(Br)c(CC2=NCCc3cc(OC)c(OC)cc32)cc1OC?
**A.** GI50 [1]: 14.9 µM (inactive); GI50 [2]: 7.13 µM (inactive); GI50 [3]: 2.16 µM (inactive); GI50 [4]: 51.2 µM (inactive); GI50 [5]: 45.4 µM (inactive); GI50 [6]: 28.9 µM (inactive); GI50 [7]: 35.7 µM (inactive); GI50 [8]: 15.9 µM (inactive); GI50 [9]: 9.93 µM (inactive); GI50 [10]: 2.33 µM (inactive); GI50 [11]: 48.1 µM (inactive); GI50 [12]: 27.9 µM (inactive); GI50 [13]: 2.35 µM (inactive); GI50 [14]: 31 µM; GI50 [15]: 5.4 µM (inactive); GI50 [16]: 15.9 µM (inactive); GI50 [17]: 36.3 µM (inactive); GI50 [18]: 12.2 µM (inactive); GI50 [19]: 0.7 µM (active); GI50 [20]: 19.7 µM (inactive); GI50 [21]: 20.9 µM (inactive); GI50 [22]: 16.6 µM (inactive); GI50 [23]: 8.89 µM (inactive); GI50 [24]: 16.7 µM (inactive); GI50 [25]: 11.3 µM (inactive); GI50 [26]: 14.8 µM (inactive); GI50 [27]: 5.65 µM (inactive); GI50 [28]: 12.9 µM (inactive); GI50 [29]: 3.16 µM (inactive); GI50 [30]: 12.5 µM (inactive); GI50 [31]: 3.88 µM (inactive); GI50 [32]: > 100 µM (inactive); GI50 [33]: 11 µM (inactive); GI50 [34]: 15.8 µM (inactive); GI50 [35]: 10.2 µM (inactive); GI50 [36]: 11.7 µM (inactive); GI50 [37]: 11.3 µM (inactive); GI50 [38]: 6.78 µM (inactive); GI50 [39]: 25.9 µM (inactive); GI50 [40]: 21.1 µM (inactive); GI50 [41]: 16.4 µM (inactive); GI50 [42]: 19.7 µM (inactive); GI50 [43]: 9.71 µM (inactive); GI50 [44]: 24.6 µM (inactive); GI50 [45]: 53.1 µM (inactive); GI50 [46]: 16.7 µM (inactive); GI50 [47]: 1.64 µM (inactive); GI50 [48]: 15.3 µM (inactive); GI50 [49]: 18.3 µM (inactive); GI50 [50]: 18 µM (inactive); GI50 [51]: 48.8 µM (inactive); GI50 [52]: 42.9 µM (inactive); GI50 [53]: 3.18 µM (inactive); GI50 [54]: 16.9 µM (inactive); GI50 [55]: 11.3 µM (inactive); GI50 [56]: 14.1 µM (inactive)

**Q.** With O=C1C(NCCO)=C(N2CC2)C(=O)C(NCCO)=C1N1CC1 as the molecule, how does the GI50 [57] read?
**A.** Its GI50 is > 100 µM (inactive).

**Q.** What about the GI50 [1] of the same molecule?
**A.** The GI50 was > 100 µM (inactive).

**Q.** What about the GI50 [2] of the same molecule?
**A.** Its GI50 is 25.1 µM (inactive).

**Q.** And the GI50 [3]?
**A.** Its GI50 is 49 µM (inactive).

**Q.** What about the GI50 [4] of the same molecule?
**A.** The GI50 was 30.8 µM (inactive).

**Q.** What about the GI50 [5] of the same molecule?
**A.** Its GI50 is > 46.2 µM (inactive).

**Q.** And the GI50 [58]?
**A.** The GI50 was 71.3 µM (inactive).

**Q.** What about the GI50 [6] of the same molecule?
**A.** The GI50 was > 57.4 µM (inactive).

**Q.** What about the GI50 [7] of the same molecule?
**A.** Its GI50 is > 81.1 µM (inactive).

**Q.** And the GI50 [59]?
**A.** Its GI50 is > 100 µM (inactive).

**Q.** What about the GI50 [8] of the same molecule?
**A.** Its GI50 is 85.9 µM (inactive).

**Q.** And the GI50 [60]?
**A.** The GI50 was > 100 µM (inactive).

**Q.** And the GI50 [9]?
**A.** Its GI50 is 17.1 µM (inactive).

**Q.** And the GI50 [10]?
**A.** Its GI50 is 13.2 µM (inactive).

**Q.** And the GI50 [11]?
**A.** Its GI50 is 37.1 µM (inactive).

**Q.** And the GI50 [12]?
**A.** Its GI50 is 28.5 µM (inactive).

**Q.** What about the GI50 [13] of the same molecule?
**A.** The GI50 was 10.2 µM (inactive).

**Q.** And the GI50 [14]?
**A.** The GI50 was 57.5 µM.

**Q.** What about the GI50 [15] of the same molecule?
**A.** The GI50 was 39.5 µM (inactive).

**Q.** What about the GI50 [16] of the same molecule?
**A.** The GI50 was 5.46 µM (inactive).

**Q.** What about the GI50 [17] of the same molecule?
**A.** Its GI50 is 63.8 µM (inactive).

**Q.** And the GI50 [18]?
**A.** Its GI50 is > 97.5 µM (inactive).

**Q.** What about the GI50 [19] of the same molecule?
**A.** Its GI50 is 26.5 µM (inactive).

**Q.** What about the GI50 [20] of the same molecule?
**A.** Its GI50 is > 100 µM (inactive).

**Q.** And the GI50 [21]?
**A.** Its GI50 is 74.5 µM (inactive).

**Q.** And the GI50 [61]?
**A.** The GI50 was > 60.4 µM (inactive).

**Q.** What about the GI50 [22] of the same molecule?
**A.** Its GI50 is > 74.3 µM (inactive).

**Q.** And the GI50 [23]?
**A.** Its GI50 is 19.5 µM (inactive).

**Q.** What about the GI50 [24] of the same molecule?
**A.** Its GI50 is 24.4 µM (inactive).

**Q.** And the GI50 [62]?
**A.** Its GI50 is > 90.4 µM (inactive).

**Q.** What about the GI50 [25] of the same molecule?
**A.** Its GI50 is 31.5 µM (inactive).

**Q.** And the GI50 [26]?
**A.** Its GI50 is 30.8 µM (inactive).

**Q.** What about the GI50 [27] of the same molecule?
**A.** The GI50 was > 100 µM (inactive).

**Q.** And the GI50 [63]?
**A.** Its GI50 is 53.3 µM (inactive).

**Q.** And the GI50 [28]?
**A.** Its GI50 is 47.3 µM (inactive).

**Q.** And the GI50 [29]?
**A.** The GI50 was 29.6 µM (inactive).

**Q.** And the GI50 [30]?
**A.** The GI50 was > 51.6 µM (inactive).

**Q.** And the GI50 [31]?
**A.** The GI50 was 58.2 µM (inactive).

**Q.** And the GI50 [32]?
**A.** The GI50 was 27.4 µM (inactive).

**Q.** And the GI50 [33]?
**A.** Its GI50 is 57.5 µM (inactive).

**Q.** What about the GI50 [64] of the same molecule?
**A.** The GI50 was > 100 µM (inactive).

**Q.** And the GI50 [65]?
**A.** The GI50 was > 77.3 µM (inactive).

**Q.** And the GI50 [34]?
**A.** The GI50 was 12.2 µM (inactive).

**Q.** What about the GI50 [36] of the same molecule?
**A.** The GI50 was 39.4 µM (inactive).

**Q.** And the GI50 [66]?
**A.** Its GI50 is > 69.2 µM (inactive).

**Q.** And the GI50 [37]?
**A.** Its GI50 is 51.9 µM (inactive).

**Q.** What about the GI50 [38] of the same molecule?
**A.** The GI50 was 16.8 µM (inactive).

**Q.** What about the GI50 [39] of the same molecule?
**A.** The GI50 was > 100 µM (inactive).

**Q.** And the GI50 [40]?
**A.** Its GI50 is 44.5 µM (inactive).

**Q.** And the GI50 [41]?
**A.** Its GI50 is > 100 µM (inactive).

**Q.** What about the GI50 [42] of the same molecule?
**A.** The GI50 was 17.9 µM (inactive).

**Q.** What about the GI50 [43] of the same molecule?
**A.** The GI50 was 29.2 µM (inactive).

**Q.** What about the GI50 [44] of the same molecule?
**A.** The GI50 was > 70.6 µM (inactive).

**Q.** And the GI50 [45]?
**A.** Its GI50 is > 58.3 µM (inactive).

**Q.** What about the GI50 [46] of the same molecule?
**A.** Its GI50 is 50 µM (inactive).

**Q.** And the GI50 [47]?
**A.** Its GI50 is > 73.1 µM (inactive).

**Q.** And the GI50 [48]?
**A.** Its GI50 is 26.5 µM (inactive).

**Q.** What about the GI50 [49] of the same molecule?
**A.** Its GI50 is 44.6 µM (inactive).

**Q.** What about the GI50 [67] of the same molecule?
**A.** The GI50 was > 69 µM (inactive).

**Q.** And the GI50 [50]?
**A.** Its GI50 is 46.8 µM (inactive).

**Q.** And the GI50 [51]?
**A.** The GI50 was 60.7 µM (inactive).

**Q.** And the GI50 [52]?
**A.** Its GI50 is 33.7 µM (inactive).

**Q.** What about the GI50 [53] of the same molecule?
**A.** The GI50 was > 100 µM (inactive).

**Q.** What about the GI50 [54] of the same molecule?
**A.** Its GI50 is 31.3 µM (inactive).

**Q.** And the GI50 [55]?
**A.** The GI50 was > 100 µM (inactive).

**Q.** And the GI50 [68]?
**A.** Its GI50 is > 100 µM (inactive).

**Q.** What about the GI50 [69] of the same molecule?
**A.** Its GI50 is > 100 µM (inactive).

**Q.** What about the GI50 [56] of the same molecule?
**A.** The GI50 was > 67.6 µM (inactive).
